Experimental data taken from patent US10463532B2, “Method for placing implant in choroid that can less invasively and simply place implant in choroid in optic disc-macula area” (priority 2016, dated 2019).

Key:
[1] = Experiment 2: dexamethasone concentration in the retina after DEX-PLA implant placed in the choroid near the optic disc (LC/MS/MS); format: in vivo, Japanese white rabbits; settings: Japanese white, rabbit, other: intrachoroidal implant near the optic disc, 3 μg
Source text: Nine 3-month-old Japanese white rabbits (purchased from Japan SLC, Inc., weight: 2 to 2.5 kg) were used as subjects, and the implant was placed in one of the eyes of each rabbit.
The implant was placed in the choroid using the method for placing an implant in the choroid according to the embodiments of the invention. Specifically, the conjunctiva was incised, and an injection needle having a size of 25G was inserted between the conjunctiva and the sclera. The tip of the injection needle was advanced to the vicinity of the optic disc along the surface of the sclera. After placing a vitrectomy lens over the cornea so that the eyeground could be observed, the tip of the injection needle appearing white was observed while observing the eyeground through the vitrectomy lens and pressing the sclera using the tip of the injection needle. The tip of the injection needle was moved to determine an appropriate insertion position of the implant in the vicinity of the optic disc, and the tip of the injection needle was inserted diagonally into the sclera. The tip of the injection needle was advanced into the choroid, and the implant was inserted into the choroid through the tip opening formed at the tip of the injection needle.
The eyeball was removed from each rabbit (three rabbits) belonging to each group when 24 hours, 1 week, and 3 weeks had elapsed after the placement of the implant.

[2] = Experiment 1: dexamethasone concentration in the retina after intravitreal, intrascleral or intrachoroidal gelatin implant (LC/MS/MS); format: in vivo, Japanese white rabbits; settings: Japanese white, rabbit, 3 μg
Description: Experiments were performed to determine the drug release effect of an intrachoroidal implant, an intravitreal implant, and an intrascleral implant. In Experiment 1, the implant was placed in the choroid using the known method illustrated in FIG. 10. […] Therefore, the implant was placed in the choroid using the known method in order to compare the intravitreal implant, the intrascleral implant, and the intrachoroidal implant as to the drug release effect.
Gelatin was cut to have a size of 0.3 (length)×0.3 (width)×0.1 (thick) mm.
Twelve 3-month-old Japanese white rabbits (purchased from Japan SLC, Inc., weight: 2 to 2.5 kg) were used as subjects. The rabbits were equally divided into an intrachoroidal implant group, an intravitreal implant group, and an intrascleral implant group, and the implant was placed in one of the eyes of each rabbit belonging to each group.
Regarding the intrachoroidal implant group, the vitreous gel in the eyeball was liquefied, and the implant was placed in the choroid using the known method for placing an implant in the choroid. The implant was placed in the choroid at a position 6 mm below the cornea.
Regarding the intravitreal implant group, the implant was placed in the vitreous body at a position 2 mm above the cornea.
Regarding the intrascleral implant group, the implant was placed in the sclera at a position 6 mm below the cornea.
The eyeball was removed from each rabbit (four rabbits) belonging to each group when 1, 3, and 24 hours had elapsed after the placement of the implant. […] In FIG. 14, the symbol “*” indicates P<0.05, and the symbol “**” indicates P<0.01.

C[C@@H]1C[C@H]2[C@@H]3CCC4=CC(=O)C=C[C@]4(C)[C@@]3(F)[C@@H](O)C[C@]2(C)[C@@]1(O)C(=O)CO [dexamethasone]
concentration at 1 week [1]: 41.2 ± 14.2 ng/g | concentration at 3 weeks [1]: 17.2 ± 11.3 ng/g | concentration at 24 h [1]: 159 ± 28.2 ng/g | concentration at 1 h ([2]; other: intrachoroidal implant): 409 ± 115 ng/g | concentration at 3 h ([2]; other: intrachoroidal implant): 23.8 ± 10.2 ng/g | concentration at 24 h ([2]; other: intrachoroidal implant): 4.7 ± 3.3 ng/g | concentration at 1 h ([2]; other: intrascleral implant): 122 ± 79.7 ng/g | concentration at 3 h ([2]; other: intrascleral implant): 5.4 ± 4 ng/g | concentration at 24 h ([2]; other: intrascleral implant): 3.3 ± 3.2 ng/g | concentration at 1 h ([2]; other: intravitreal implant): 13.5 ± 8.7 ng/g | concentration at 3 h ([2]; other: intravitreal implant): 3.6 ± 4.2 ng/g | concentration at 24 h ([2]; other: intravitreal implant): 4.2 ± 4.5 ng/g
